pIC50: −log10 of the molar value.
Experiments:
human OCT2 = target: T1, human OCT2 (Homo sapiens, UniProt O15244); test: Inhibition of metformin uptake in HEK-293 cells overexpressing hOCT2; details: for Effect on hOCT2 activity at low concentrations (hOCT2-enhancer): low but clinically relevant concentrations (less than 10 μM); for Selectivity category hOCT2 versus hMATEs: comparison of IC50 for hOCT2, hMATE1, hMATE2-K
T1 sequence (O15244 1-555): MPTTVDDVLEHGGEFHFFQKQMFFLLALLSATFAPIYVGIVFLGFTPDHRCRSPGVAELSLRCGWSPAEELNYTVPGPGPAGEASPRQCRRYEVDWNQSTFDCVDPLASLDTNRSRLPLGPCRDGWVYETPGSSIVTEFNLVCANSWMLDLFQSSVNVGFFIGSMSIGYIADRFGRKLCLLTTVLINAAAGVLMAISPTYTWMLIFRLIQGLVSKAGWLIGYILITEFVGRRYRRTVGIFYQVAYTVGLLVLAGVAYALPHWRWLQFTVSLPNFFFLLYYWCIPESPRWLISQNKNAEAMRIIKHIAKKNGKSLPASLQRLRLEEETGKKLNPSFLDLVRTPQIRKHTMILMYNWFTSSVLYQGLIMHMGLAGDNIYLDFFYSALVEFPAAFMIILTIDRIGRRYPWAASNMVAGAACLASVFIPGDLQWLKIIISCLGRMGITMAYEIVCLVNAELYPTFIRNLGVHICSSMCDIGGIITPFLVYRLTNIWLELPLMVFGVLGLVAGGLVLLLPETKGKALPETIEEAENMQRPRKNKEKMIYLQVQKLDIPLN

C57BL/6J mice = test: Cisplatin-induced nephrotoxicity in mice; format: in vivo, mouse; details: 72 h
human OCT1 = target: T2, human OCT1 (Homo sapiens, UniProt O15245); test: Inhibition of metformin uptake in HEK-293 cells overexpressing hOCT1; format: cell-based
T2 sequence (O15245 1-554): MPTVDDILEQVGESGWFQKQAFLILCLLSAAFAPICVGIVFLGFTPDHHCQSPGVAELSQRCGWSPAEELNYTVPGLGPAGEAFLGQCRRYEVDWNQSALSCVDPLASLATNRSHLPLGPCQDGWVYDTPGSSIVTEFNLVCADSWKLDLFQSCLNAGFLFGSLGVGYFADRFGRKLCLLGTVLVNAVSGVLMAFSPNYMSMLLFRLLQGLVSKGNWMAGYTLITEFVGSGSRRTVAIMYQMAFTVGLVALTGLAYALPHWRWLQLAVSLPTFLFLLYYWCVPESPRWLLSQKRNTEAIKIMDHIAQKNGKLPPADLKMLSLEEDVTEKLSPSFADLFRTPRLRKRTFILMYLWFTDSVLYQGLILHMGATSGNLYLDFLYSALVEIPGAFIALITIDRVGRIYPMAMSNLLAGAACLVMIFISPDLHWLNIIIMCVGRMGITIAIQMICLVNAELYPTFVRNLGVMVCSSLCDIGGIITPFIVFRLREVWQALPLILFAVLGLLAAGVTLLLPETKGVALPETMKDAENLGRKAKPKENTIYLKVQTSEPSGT

mouse Mate1 = target: T3, mouse Mate1 (Mus musculus, UniProt Q8K0H1); test: Inhibition of metformin uptake in HEK-293 cells overexpressing mouse Mate1; format: cell-based
T3 sequence (Q8K0H1 1-567): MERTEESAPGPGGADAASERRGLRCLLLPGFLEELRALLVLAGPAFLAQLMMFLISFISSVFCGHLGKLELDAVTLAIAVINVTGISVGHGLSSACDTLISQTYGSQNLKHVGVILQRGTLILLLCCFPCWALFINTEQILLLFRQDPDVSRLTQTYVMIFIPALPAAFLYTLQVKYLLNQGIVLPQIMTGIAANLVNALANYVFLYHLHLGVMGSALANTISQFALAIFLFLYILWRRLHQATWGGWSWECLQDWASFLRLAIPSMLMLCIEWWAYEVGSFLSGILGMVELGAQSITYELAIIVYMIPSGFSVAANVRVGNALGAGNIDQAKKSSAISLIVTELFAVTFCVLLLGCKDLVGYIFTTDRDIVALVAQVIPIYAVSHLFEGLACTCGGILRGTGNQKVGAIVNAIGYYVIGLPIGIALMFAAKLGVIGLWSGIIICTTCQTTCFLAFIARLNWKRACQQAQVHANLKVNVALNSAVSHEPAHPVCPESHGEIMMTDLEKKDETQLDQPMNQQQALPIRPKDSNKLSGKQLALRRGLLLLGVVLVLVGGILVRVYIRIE

[1] = cited from earlier work
[2] = Metformin pharmacokinetics in mice with carvedilol; format: in vivo, mouse; details: carvedilol 2 mg/kg; at 30, 45 and 60 min
human MATE1 = target: T4, human MATE1 (Homo sapiens, UniProt Q96FL8); test: Inhibition of metformin uptake in HEK-293 cells overexpressing hMATE1; format: cell-based; details: IC50 for inhibition of hMATE1, metformin 50 μM probe substrate, HEK293-hMATE1
T4 sequence (Q96FL8 1-570): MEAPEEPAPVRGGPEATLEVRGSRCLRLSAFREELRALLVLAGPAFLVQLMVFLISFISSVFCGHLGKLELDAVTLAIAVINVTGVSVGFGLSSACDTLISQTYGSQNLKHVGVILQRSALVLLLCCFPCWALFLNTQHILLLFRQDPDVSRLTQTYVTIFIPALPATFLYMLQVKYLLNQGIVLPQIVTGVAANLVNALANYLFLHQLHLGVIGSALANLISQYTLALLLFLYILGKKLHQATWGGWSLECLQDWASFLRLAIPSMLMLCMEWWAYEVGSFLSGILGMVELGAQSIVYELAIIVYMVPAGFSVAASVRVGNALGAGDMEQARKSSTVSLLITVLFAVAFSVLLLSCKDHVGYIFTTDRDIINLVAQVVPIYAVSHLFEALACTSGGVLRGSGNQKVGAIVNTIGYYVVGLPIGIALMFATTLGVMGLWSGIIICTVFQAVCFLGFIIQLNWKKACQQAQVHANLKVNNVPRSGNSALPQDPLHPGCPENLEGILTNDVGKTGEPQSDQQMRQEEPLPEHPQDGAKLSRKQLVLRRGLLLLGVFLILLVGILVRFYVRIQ

HEK-hOCT2 cells [3] = test: Cisplatin cytotoxicity, cell viability by CCK-8; format: cell-based, human; details: carvedilol 10 μM + cisplatin 100 μM 2 h, then 22 h
mouse Oct2 = target: T5, mouse Oct2 (Mus musculus, UniProt O70577); test: Inhibition of metformin uptake in HEK-293 cells overexpressing mouse Oct2; format: cell-based
T5 sequence (O70577 1-553): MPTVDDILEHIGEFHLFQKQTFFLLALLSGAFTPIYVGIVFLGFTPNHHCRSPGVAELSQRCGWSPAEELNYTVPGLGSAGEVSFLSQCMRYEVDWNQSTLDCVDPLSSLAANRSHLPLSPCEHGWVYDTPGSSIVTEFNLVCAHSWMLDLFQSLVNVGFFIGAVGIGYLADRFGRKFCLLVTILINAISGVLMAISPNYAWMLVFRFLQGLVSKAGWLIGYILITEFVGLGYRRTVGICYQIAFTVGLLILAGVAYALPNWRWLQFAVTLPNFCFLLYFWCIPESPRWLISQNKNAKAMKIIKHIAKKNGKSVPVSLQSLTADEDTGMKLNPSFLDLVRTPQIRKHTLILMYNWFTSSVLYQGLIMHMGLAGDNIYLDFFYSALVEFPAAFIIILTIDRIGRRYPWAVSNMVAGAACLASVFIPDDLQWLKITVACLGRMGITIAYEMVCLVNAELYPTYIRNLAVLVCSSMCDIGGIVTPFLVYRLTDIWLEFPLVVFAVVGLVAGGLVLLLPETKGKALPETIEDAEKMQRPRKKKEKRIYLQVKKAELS

mouse Oct1 = target: T6, mouse Oct1 (Mus musculus, UniProt O08966); test: Inhibition of metformin uptake in HEK-293 cells overexpressing mouse Oct1; format: cell-based
T6 sequence (O08966 1-556): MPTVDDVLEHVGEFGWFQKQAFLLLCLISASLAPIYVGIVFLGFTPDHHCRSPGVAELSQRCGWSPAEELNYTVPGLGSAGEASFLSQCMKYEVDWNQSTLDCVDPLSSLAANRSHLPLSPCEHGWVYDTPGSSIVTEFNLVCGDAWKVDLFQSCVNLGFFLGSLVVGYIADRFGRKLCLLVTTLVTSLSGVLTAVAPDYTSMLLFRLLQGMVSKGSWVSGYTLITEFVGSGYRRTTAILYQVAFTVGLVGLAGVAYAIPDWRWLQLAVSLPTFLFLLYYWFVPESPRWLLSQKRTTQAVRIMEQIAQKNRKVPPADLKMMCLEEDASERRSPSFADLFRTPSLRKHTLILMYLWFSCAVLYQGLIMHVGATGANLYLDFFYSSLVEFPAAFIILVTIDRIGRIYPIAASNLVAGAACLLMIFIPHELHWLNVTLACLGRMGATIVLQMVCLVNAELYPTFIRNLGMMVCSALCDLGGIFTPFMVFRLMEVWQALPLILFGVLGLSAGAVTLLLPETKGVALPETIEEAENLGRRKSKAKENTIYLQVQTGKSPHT

HEK-control cells = test: Cisplatin accumulation in HEK-control cells; format: cell-based, human; details: carvedilol 10 μM + cisplatin 100 μM 2 h, then 22 h normal medium
HEK-hOCT2 cells [4] = test: Cisplatin accumulation in HEK-hOCT2 cells; format: cell-based, human; details: carvedilol 10 μM + cisplatin 100 μM 2 h, then 22 h normal medium
[5] = carvedilol 2 mg/kg x2 + cisplatin 10 mg/kg

In the case of `CC(C)(C)NC(=O)[C@@H]1C[C@@H]2CCCC[C@@H]2CN1C[C@@H](O)[C@H](Cc1ccccc1)NC(=O)[C@H](CC(N)=O)NC(=O)c1ccc2ccccc2n1` [Saquinavir], the “Effect on hOCT2-mediated metformin uptake at high concentrations” value (from here on “Effect … at high concentrations”) (human OCT2) was “could inhibit hOCT2-mediated metformin uptake” and the “Effect on hOCT2 activity at low concentrations (hOCT2-enhancer)” value (from here on “Effect on hOCT2 activity”) (human OCT2) was “increase hOCT2 activity”.

With `COc1ccccc1OCCNCC(O)COc1cccc2[nH]c3ccccc3c12` (stereo not shown) [Carvedilol] the “Selectivity category hOCT2 versus hMATEs” value (human OCT2) was “selective hOCT2 inhibitors”, the “Kidney histology (renal damage), co-administration” value (C57BL/6J mice; [5]) was “substantially ameliorated” and the “Kim-1 gene transcripts in kidney, co-administration” value (C57BL/6J mice; [5]) was “almost be brought down to the normal base”. The “Kidney histology, treatment-only group” value (C57BL/6J mice; carvedilol only) was “No visible morphological change”, the pIC50 (human OCT1) was 5.19 and the pIC50 (mouse Mate1) was 4.17. The “Time to peak plasma concentration” value ([1]; after oral administration) was 1—2 h, the Oral bioavailability ([1]; human, oral) was 24% and the Plasma binding ([1]; mostly bound to albumin) was “approximately 95%”. The Terminal half-life ([1]; oral administration) was 6—10 h, the “Plasma concentrations of metformin compared to vehicle” value [2] was “significantly increased” and the pIC50 (human MATE1) was 3.99. The “Cell viability of cisplatin-treated HEK-hOCT2 cells with co-treatment” value (HEK-hOCT2 cells [3]) was “significantly rescued”, the pIC50 (mouse Oct2) was 4.64 and the pIC50 (mouse Oct1) was 5.55. For the same molecule, the “Accumulation of cisplatin in control cells” value (HEK-control cells) was 3.87 ± 0.06 ppm/mg protein and the “Accumulation of cisplatin in HEK-hOCT2 stable cells” value (HEK-hOCT2 cells [4]) was 3.77 ± 0.02 ppm/mg protein.

With `CCCCOc1ccc(CC(=O)NO)cc1` [Bufexamac] the “Selectivity category hOCT2 versus hMATEs” value (human OCT2) was “selective hOCT2 inhibitors”.

For `CCC(C)n1ncn(-c2ccc(N3CCN(c4ccc(OCC5COC(Cn6cncn6)(c6ccc(Cl)cc6Cl)O5)cc4)CC3)cc2)c1=O` (stereo not shown) [Itraconazole], the “Effect … at high concentrations” value (human OCT2) was “could inhibit hOCT2-mediated metformin uptake” and the “Effect on hOCT2 activity” value (human OCT2) was “increase hOCT2 activity”.

For `C(=C\c1ccccc1)/CN1CCN(C(c2ccccc2)c2ccccc2)CC1` [Cimnasizine], the “Effect … at high concentrations” value (human OCT2) was “could inhibit hOCT2-mediated metformin uptake” and the “Effect on hOCT2 activity” value (human OCT2) was “increase hOCT2 activity”.

With `CC(C)C(=O)Nc1ccc([N+](=O)[O-])c(C(F)(F)F)c1` [Flutamide] the “Selectivity category hOCT2 versus hMATEs” value (human OCT2) was “selective hOCT2 inhibitors”.
